Laboratory results taken from patent US7429663B2, “7-(Pyrimidin-4-yl)-Imidazo[1,2-a]Pyrimidin-5(1H)-ones as GSK3β inhibitors” (Sanofi-Aventis, priority 2002, dated 2008).

Key:
GSK3β = GSK3β (Homo sapiens, UniProt P49841); assay: Inhibitory activity against GSK3β (33P-ATP phosphorylation of prephosphorylated GS1 peptide, two protocols); assay type: biochemical; conditions: first or second protocol not specified
Description: Inhibitory Activity of the Medicament of the Present Invention Against GSK3β Two different protocols can be used. In a first protocol : 7.5 μM of prephosphorylated GS1 peptide and 10 μM ATP (containing 300,000 cpm of 33P-ATP) were incubated in 25 mM Tris-HCl, pH 7.5, 0.6 mM DTT, 6 mM MgCl2, 0.6 mM EGTA, 0.05 mg/ml BSA buffer for 1 hour at room temperature in the presence of GSK3β (total reaction volume : 100 microliters). In a second protocol : 4.1 μM of prephosphorylated GS1 peptide and 42 μM ATP (containing 260,000 cpm 33P-ATP) were incubated in 80 mM Mes-NaOH, pH 6.5, 1 mM Mg acetate, 0.5 mM EGTA, 5 mM 2-mercaptoethanol, 0.02% Tween 20, 10% glycerol buffer for 2 hours at room temperature in the presence of GSK3β. Inhibitors were solubilised in DMSO (final solvent concentration in the reaction medium, 1%). The reaction was stopped with 100 microliters of a solution made of 25 g polyphosphoric acid (85% P2O5), 126 ml 85% H3PO4, H2O to 500 ml and then diluted to 1:100 before use. An aliquot of the reaction mixture was then transferred to Whatman P81 cation exchange filters and rinsed with the solution described above. Incorporated 33P radioactivity was determined by liquid scintillation spectrometry. The phosphorylated GS-1 peptide had the following sequence: NH2-[…](P)EDEE-COOH. […]

Chain of GSK3β (P49841 whole entry, species assumed): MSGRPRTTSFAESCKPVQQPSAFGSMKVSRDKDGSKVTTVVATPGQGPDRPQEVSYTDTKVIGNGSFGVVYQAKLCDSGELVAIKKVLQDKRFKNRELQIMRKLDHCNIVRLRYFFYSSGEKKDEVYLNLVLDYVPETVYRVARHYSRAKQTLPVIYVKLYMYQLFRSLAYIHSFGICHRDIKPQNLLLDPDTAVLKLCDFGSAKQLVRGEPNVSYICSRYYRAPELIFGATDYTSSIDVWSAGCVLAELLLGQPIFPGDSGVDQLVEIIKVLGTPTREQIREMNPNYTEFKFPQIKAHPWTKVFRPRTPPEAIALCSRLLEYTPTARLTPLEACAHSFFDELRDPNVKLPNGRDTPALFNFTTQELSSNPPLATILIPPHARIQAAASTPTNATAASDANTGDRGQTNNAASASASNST

Row | IC50 (GSK3β) [nM] | melting point [°C] | Structure (SMILES)
1 | 21 | 215 to 217 | O=c1cc(-c2ccncn2)nc2n(CCc3cccc4ccccc34)ccn12 [compound 6, 1-(2-Naphthalen-1-yl-ethyl)-7-(pyrimidin-4-yl)-1H-imidazo[1,2-a]pyrimidin-5-one]
2 |  | 159 to 161 | O=c1cc(-c2ccncn2)nc2n(CC(O)c3ccccc3)ccn12 (stereo not shown) [compound 11, 1-(2-Hydroxy-2-phenyl-ethyl)-7-(pyrimidin-4-yl)-1H-imidazo[1,2-a]pyrimidin-5-one]
3 |  | 240 to 242 | O=C(Cn1ccn2c(=O)cc(-c3ccncn3)nc12)c1ccccc1 [compound 12, 1-(2-Oxo-2-phenyl-ethyl)-7-(pyrimidin-4-yl)-1H-imidazo[1,2-a]pyrimidin-5-one]
